Measured values from ChEMBL document CHEMBL4354882, “Selective Janus Kinase 2 (JAK2) Pseudokinase Ligands with a Diaminotriazole Core” (J Med Chem, 2020).

The compounds below were run against T1, Tyrosine-protein kinase JAK2 (Homo sapiens, UniProt O60674) (assay: Binding affinity to wild type 6XHis-tagged human JAK2 JH2 domain (513 to 827 residues) expressed in baculovirus infected Sf9 cells by MANT-ATP binding assay).
T1 sequence (O60674 whole entry, the tested form may be a part): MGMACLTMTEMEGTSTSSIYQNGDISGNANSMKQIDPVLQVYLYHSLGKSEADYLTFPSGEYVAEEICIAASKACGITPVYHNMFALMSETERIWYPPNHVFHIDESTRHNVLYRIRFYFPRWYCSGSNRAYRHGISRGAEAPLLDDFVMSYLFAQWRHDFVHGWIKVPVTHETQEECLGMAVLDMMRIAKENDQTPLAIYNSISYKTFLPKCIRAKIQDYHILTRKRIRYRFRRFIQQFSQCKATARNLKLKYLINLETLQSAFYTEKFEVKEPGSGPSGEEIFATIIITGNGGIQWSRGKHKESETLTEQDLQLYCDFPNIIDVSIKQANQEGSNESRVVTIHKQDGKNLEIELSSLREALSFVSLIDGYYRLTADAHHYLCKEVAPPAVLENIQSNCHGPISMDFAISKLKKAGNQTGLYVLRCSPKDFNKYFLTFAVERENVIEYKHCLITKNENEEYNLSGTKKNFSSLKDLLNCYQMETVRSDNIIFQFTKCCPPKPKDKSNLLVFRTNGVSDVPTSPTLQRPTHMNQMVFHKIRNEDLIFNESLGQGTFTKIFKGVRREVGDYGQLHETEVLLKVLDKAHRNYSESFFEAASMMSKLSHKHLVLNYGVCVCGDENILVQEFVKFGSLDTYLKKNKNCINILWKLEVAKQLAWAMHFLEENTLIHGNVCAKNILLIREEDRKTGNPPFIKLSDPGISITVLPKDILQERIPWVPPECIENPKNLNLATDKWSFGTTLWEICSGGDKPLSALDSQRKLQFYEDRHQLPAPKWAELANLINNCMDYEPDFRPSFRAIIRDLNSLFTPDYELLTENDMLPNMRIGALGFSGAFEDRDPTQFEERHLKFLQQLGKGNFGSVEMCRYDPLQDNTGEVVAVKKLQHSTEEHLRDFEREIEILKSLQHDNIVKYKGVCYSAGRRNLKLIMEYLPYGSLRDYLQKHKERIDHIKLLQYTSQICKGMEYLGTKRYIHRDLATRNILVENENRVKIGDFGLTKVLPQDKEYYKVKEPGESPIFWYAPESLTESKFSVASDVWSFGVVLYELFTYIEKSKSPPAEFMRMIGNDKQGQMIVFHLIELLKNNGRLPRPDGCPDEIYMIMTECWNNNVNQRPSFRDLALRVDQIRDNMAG

Compound | Kd [µM]
Nc1ncnc2c1ncn2[C@@H]1O[C@H](COP(=O)(O)OP(=O)(O)OP(=O)(O)O)[C@@H](O)[C@H]1O [ADENOSINE TRIPHOSPHATE] | 1.3

The compounds below were run against T1, Tyrosine-protein kinase JAK2 (assay: Binding affinity to human C-terminal His8-tagged JAK2 pseudokinase (513 to 827 residues) expressed in baculovirus infected Hi-5 cells by intrinsic tryptophan fluorescence assay).

Kd [µM] | Compound
0.62 | CC(C)CCN1c2nc(Nc3cc(F)c(O)c(F)c3)ncc2N(C)C(=O)C1C (stereo not drawn)

What follows are compounds tested against Tyrosine-protein kinase JAK2 (Homo sapiens, UniProt O60674, V617F) (assay: Binding affinity to 6XHis-tagged human JAK2 JH2 domain V617F mutant (513 to 827 residues) expressed in baculovirus infected Sf9 cells by MANT-ATP binding assay).
Sequence of Tyrosine-protein kinase JAK2 (Homo sapiens, UniProt O60674, V617F) (O60674 whole entry V617F, the tested form may be a part): as the sequence (O60674 whole entry, the tested form may be a part) above, with V617F counted along it

Compound | Kd [µM]
Nc1ncnc2c1ncn2[C@@H]1O[C@H](COP(=O)(O)OP(=O)(O)OP(=O)(O)O)[C@@H](O)[C@H]1O [ADENOSINE TRIPHOSPHATE] | 1.3

What follows are compounds tested against T1, Tyrosine-protein kinase JAK2.
Design: species or system Sf9

Compound | Kd [µM]
N#Cc1ccc(Nc2nc(N)n(C(=O)Nc3cccc(OCC(=O)O)c3)n2)cc1 | 4
Nc1nc(Nc2ccc(S(N)(=O)=O)cc2)nn1C(=O)Nc1ccc(-c2ccc(C(=O)O)o2)cc1 | 0.439
Nc1nc(Nc2ccc(S(N)(=O)=O)cc2)nn1C(=O)Nc1ccc(-c2nnc(C(=O)O)o2)cc1 | 7
CC(C)CCN1c2nc(Nc3cc(F)c(O)c(F)c3)ncc2N(C)C(=O)C1C (stereo not drawn) | 2

Now from value to compound:

Kd [µM] | Compound
16.7 | Nc1nc(Nc2ccc(S(N)(=O)=O)cc2)nn1Cc1c(F)cccc1F
12.3 | Nc1nc(Nc2ccc(S(N)(=O)=O)cc2)nn1C(=O)Nc1cccnc1
30.5 | Nc1nc(Nc2ccc(S(N)(=O)=O)cc2)nn1C(=O)Nc1ccccn1
4.7 | Nc1nc(Nc2ccc(S(N)(=O)=O)cc2)nn1C(=O)Nc1ccccc1
1.9 | COC(=O)COc1ccc(NC(=O)n2nc(Nc3ccc(S(N)(=O)=O)cc3)nc2N)cc1
47.8 | CN(C(=O)n1nc(Nc2ccc(S(N)(=O)=O)cc2)nc1N)c1ccccc1
